Measurements as given in publication PMC6366416, “Synthesis and in vitro anticancer activity of certain novel 1-(2-methyl-6-arylpyridin-3-yl)-3-phenylureas as apoptosis-inducing agents” (Journal of Enzyme Inhibition and Medicinal Chemistry, 2019).

Tests used:
SW-620 = assay: NCI one-dose SRB growth inhibition; format: cell-based; settings: Homo sapiens, Colon Cancer, 48 h, read-out: GI% SW-620
Experimental: (§1) The antitumor assay was performed according to the protocol of the Drug Evaluation Branch, NCI, Bethesda[24–26]. A 48 h drug exposure protocol was adopted, and sulforhodamine B (SRB) assay[27] was utilized to assess the cell growth and viability, as reported earlier[17]^,[28].
(§2) The structures of all the newly synthesized pyridines 5a–l were submitted to the National Cancer Institute (NCI) Developmental Therapeutic Program (www.dtp.nci.nih.gov). […] Nine different types of cancer were tested in this assay: colon, ovarian, prostate, leukemia, melanoma, CNS, renal, breast and lung cancers. A 48 h drug exposure protocol was adopted, and sulforhodamine B (SRB) assay[27] was utilized to assess the cell growth and viability.

K-562 = assay: NCI one-dose SRB growth inhibition; format: cell-based; settings: Homo sapiens, K562, 48 h, Leukemia, read-out: GI% K-562
Experimental: as §1, §2

SF-539 = assay: NCI one-dose SRB growth inhibition; format: cell-based; settings: Homo sapiens, CNS Cancer, 48 h, read-out: GI% SF-539
Experimental: as §1, §2

HL-60(TB) = assay: NCI one-dose SRB growth inhibition; format: cell-based; settings: Homo sapiens, Leukemia, 48 h, read-out: GI% HL-60(TB)
Experimental: as §1, §2

HS 578T = assay: NCI one-dose SRB growth inhibition; format: cell-based; settings: Homo sapiens, Breast Cancer, 48 h, read-out: GI% HS 578T
Experimental: as §1, §2

MDA-MB-468 = assay: NCI one-dose SRB growth inhibition; format: cell-based; settings: Homo sapiens, Breast Cancer, 48 h, read-out: GI% MDA-MB-468
Experimental: as §1, §2

NCI-H460 = assay: NCI one-dose SRB growth inhibition; format: cell-based; settings: Homo sapiens, Non-Small Cell Lung Cancer, 48 h, read-out: GI% NCI-H460
Experimental: as §1, §2

SNB-19 = assay: NCI one-dose SRB growth inhibition; format: cell-based; settings: Homo sapiens, CNS Cancer, 48 h, read-out: GI% SNB-19
Experimental: as §1, §2

HOP-92 = assay: NCI one-dose SRB growth inhibition; format: cell-based; settings: Homo sapiens, Non-Small Cell Lung Cancer, 48 h, read-out: GI% HOP-92
Experimental: as §1, §2

KM12 = assay: NCI one-dose SRB growth inhibition; format: cell-based; settings: Homo sapiens, Colon Cancer, 48 h, read-out: GI% KM12
Experimental: as §1, §2

SK-MEL-5 = assay: NCI one-dose SRB growth inhibition; format: cell-based; settings: Homo sapiens, Melanoma, 48 h, read-out: GI% SK-MEL-5
Experimental: as §1, §2

HCT-116 = assay: NCI one-dose SRB growth inhibition; format: cell-based; settings: Homo sapiens, HCT-116, 48 h, Colon Cancer, read-out: GI% HCT-116
Experimental: as §1, §2

MOLT-4 = assay: NCI one-dose SRB growth inhibition; format: cell-based; settings: Homo sapiens, Leukemia, 48 h, read-out: GI% MOLT-4
Experimental: as §1, §2

NCI/ADR-RES = assay: NCI one-dose SRB growth inhibition; format: cell-based; settings: Homo sapiens, Ovarian Cancer, 48 h, read-out: GI% NCI/ADR-RES
Experimental: as §1, §2

SK-MEL-2 = assay: NCI one-dose SRB growth inhibition; format: cell-based; settings: Homo sapiens, Melanoma, 48 h, read-out: GI% SK-MEL-2
Experimental: as §1, §2

NCI-H23 = assay: NCI one-dose SRB growth inhibition; format: cell-based; settings: Homo sapiens, Non-Small Cell Lung Cancer, 48 h, read-out: GI% NCI-H23
Experimental: as §1, §2

UACC-257 = assay: NCI one-dose SRB growth inhibition; format: cell-based; settings: Homo sapiens, UACC-257, read-out: GI% UACC-257, Melanoma, 48 h
Experimental: as §1, §2

A498 = assay: NCI one-dose SRB growth inhibition; format: cell-based; settings: Homo sapiens, Renal Cancer, 48 h, read-out: GI% A498
Experimental: as §1, §2

SK-MEL-28 = assay: NCI one-dose SRB growth inhibition; format: cell-based; settings: Homo sapiens, Melanoma, 48 h, read-out: GI% SK-MEL-28
Experimental: as §1, §2

M14 = assay: NCI one-dose SRB growth inhibition; format: cell-based; settings: Homo sapiens, M14, 48 h, Melanoma, read-out: GI% M14
Experimental: as §1, §2

NCI-H226 = assay: NCI one-dose SRB growth inhibition; format: cell-based; settings: Homo sapiens, Non-Small Cell Lung Cancer, 48 h, read-out: GI% NCI-H226
Experimental: as §1, §2

NCI-H522 = assay: NCI one-dose SRB growth inhibition; format: cell-based; settings: Homo sapiens, NCI-H522, 48 h, Non-Small Cell Lung Cancer, read-out: GI% NCI-H522
Experimental: as §1, §2

A549 cell line = assay: MTT anti-proliferative assay; format: cell-based; settings: Homo sapiens, 48 h of incubation, mean ± SD of three experiments
Experimental: (§3) A549 (non-small cell lung cancer cell line) and HCT-116 (human colon cancer cell line), were obtained from American Type Culture Collection (Manassas, VA, USA). The cells were maintained in Dulbecco’s Modified Eagle’s Medium (DMEM) (Sigma-Aldrich, St. Louis, MO), and supplemented with 10% heat-inactivated FBS (Hyclone), 10 μg/mL of insulin (Manufacturer, Sigma, St. Louis, MO, USA), and 1% penicillin-streptomycin. MTT assay[29] was adopted to assess the in vitro antitumor activity of the newly synthesized pyridines 5a–l according to the reported procedures, using Doxorubicin as a standard treatment. Experimental conditions were tested using three replicates (three wells of the 96-well plate per experimental condition) and all experiments were carried out in triplicates. IC50 values were calculated by the use of the equation for Boltzman sigmoidal concentration–response curve using the nonlinear regression fitting models by Graph Pad, Prism version 5 (GraphPad Software Inc., La Jolla, CA).
(§4) All newly synthesized pyridines 5a–l were examined for their anti-proliferative activity towards two cancer cell lines: non-small cell lung cancer A549 cell line and colon cancer HCT-116 cell line. The MTT colorimetric assay was adopted to assess the anti-proliferative activity as described by Mosmann[29]. Doxorubicin was used as a control in this assay.

HCT-116 cell line = assay: MTT anti-proliferative assay; format: cell-based; settings: Homo sapiens, 48 h of incubation, mean ± SD of three experiments
Experimental: as §3, §4

WI-38 cell line = assay: MTT cytotoxicity towards non-tumorigenic cells; format: cell-based, human; settings: for IC50: WI-38, MTT, non-tumorigenic human lung fibroblast, mean ± SD of three experiments; for S. I. WI-38/A549: selectivity index, IC50 WI-38 / IC50 A549
Experimental: The cytotoxic activity of all synthesized pyridines 5a–l were assessed against non-tumorigenic human lung fibroblast WI-38 cell line to investigate their safety, using the MTT colorimetric assay.

[1] = tested on: 60 cancer cell lines (NCI, USA); assay: NCI one-dose SRB assay, whole panel; format: cell-based, human; settings: 10 μM; cell lines with GI% higher than 10%
Experimental: as §1, §2

SMILES	melting point	inhibition at 10 µM (SW-620)	inhibition at 10 µM (K-562)	inhibition at 10 µM (SF-539)	inhibition at 10 µM (HL-60(TB))	inhibition at 10 µM (HS 578T)	inhibition at 10 µM (MDA-MB-468)	inhibition at 10 µM (NCI-H460)	inhibition at 10 µM (SNB-19)	inhibition at 10 µM (HOP-92)	inhibition at 10 µM (KM12)	inhibition at 10 µM (SK-MEL-5)	inhibition at 10 µM (HCT-116)	inhibition at 10 µM (MOLT-4)	inhibition at 10 µM (NCI/ADR-RES)	inhibition at 10 µM (SK-MEL-2)	inhibition at 10 µM (NCI-H23)	inhibition at 10 µM (UACC-257)	inhibition at 10 µM (A498)	inhibition at 10 µM (SK-MEL-28)	other results
Cc1nc(-c2ccc(Cl)cc2)ccc1NC(=O)Nc1cccc(C(F)(F)F)c1 [Compound 5e, 1-(6-(4-Chlorophenyl)-2-methylpyridin-3-yl)-3-(3-(trifluoromethyl)phenyl)urea]	241 to 242 °C	11%	20%	< 10%	21%	< 10%	< 10%	34%	< 10%	< 10%	< 10%	< 10%	26%	12%	< 10%	< 10%	< 10%	< 10%	< 10%	< 10%	inhibition at 10 µM (M14): < 10%; inhibition at 10 µM (NCI-H226): < 10%; inhibition at 10 µM (NCI-H522): 48%; IC50 (A549 cell line): 11.9 ± 0.92 µM; IC50 (HCT-116 cell line): 7.05 ± 0.72 µM; IC50 (WI-38 cell line): 130 ± 9.22 µM; S. I. WI-38/A549 (WI-38 cell line): 11.0; Sensitive cell lines no. [1]: 17
COc1ccc(NC(=O)Nc2ccc(-c3ccc(Cl)cc3)nc2C)cc1 [Compound 5f, 1-(6-(4-Chlorophenyl)-2-methylpyridin-3-yl)-3-(4-methoxyphenyl) urea]	264 to 265 °C	< 10%	13%	< 10%	12%	< 10%	< 10%	< 10%	< 10%	< 10%	< 10%	38%	21%	14%	< 10%	< 10%	< 10%	26%	< 10%	13%	inhibition at 10 µM (M14): 38%; inhibition at 10 µM (NCI-H226): 19%; inhibition at 10 µM (NCI-H522): 40%; IC50 (A549 cell line): 7.9 ± 0.54 µM; IC50 (HCT-116 cell line): 12.6 ± 1.08 µM; IC50 (WI-38 cell line): 116 ± 9.61 µM; S. I. WI-38/A549 (WI-38 cell line): 14.7; Sensitive cell lines no. [1]: 19
Cc1nc(-c2cccs2)ccc1NC(=O)Nc1ccc(F)cc1 [Compound 5h, 1-(4-Fluorophenyl)-3-(2-methyl-6-(thiophen-2-yl)pyridin-3-yl)urea]	217 to 219 °C	< 10%	22%	< 10%	15%	< 10%	16%	< 10%	< 10%	< 10%	18%	12%	22%	29%	< 10%	24%	16%	20%	< 10%	< 10%	inhibition at 10 µM (M14): < 10%; inhibition at 10 µM (NCI-H226): < 10%; inhibition at 10 µM (NCI-H522): 39%; IC50 (A549 cell line): 10.6 ± 0.86 µM; IC50 (HCT-116 cell line): 8.25 ± 0.84 µM; IC50 (WI-38 cell line): 143 ± 8.38 µM; S. I. WI-38/A549 (WI-38 cell line): 13.4; Sensitive cell lines no. [1]: 23
CCOC(=O)c1ccc(NC(=O)Nc2ccc(-c3cccs3)nc2C)cc1 [Compound 5j, Ethyl 4-(3-(2-methyl-6-(thiophen-2-yl)pyridin-3-yl)ureido)benzoate]	203 to 204 °C	< 10%	42%	< 10%	10%	< 10%	13%	43%	< 10%	< 10%	18%	22%	27%	44%	< 10%	11%	< 10%	< 10%	< 10%	< 10%	inhibition at 10 µM (M14): 38%; inhibition at 10 µM (NCI-H226): < 10%; inhibition at 10 µM (NCI-H522): 52%; IC50 (A549 cell line): 8.04 ± 0.59 µM; IC50 (HCT-116 cell line): 9.38 ± 0.67 µM; IC50 (WI-38 cell line): 107 ± 7.02 µM; S. I. WI-38/A549 (WI-38 cell line): 13.3; Sensitive cell lines no. [1]: 24
